Laboratory results from US20250151728A1, “ANTIMICROBIAL SYSTEM WITH BETA CARBOLINE ALKALOID AND INDOLE ALKALOID AND COMPOSITIONS COMPRISING THEM” (Conopco, Inc., d/b/a UNILEVER, priority 2021, published 2025).

Columns and labels:
[1] = system: Enterobacter gergoviae ATCC 33028; test: Liquid broth assay (MIC and checkerboard) against Enterobacter gergoviae; assay type: cell-based; conditions: Pluralibacter gergoviae, ATCC33028, component by itself, 30° C., 24 hours, MIC = <25% growth vs control (OD600nm), read-out: minimal inhibitory concentration (MIC)
Excerpt: (§1) Naturally derived antimicrobial systems were made, as shown below by combining the indole alkaloid and beta carboline alkaloid. Two pools were set up and each pool contained 1 organism. The strains involved were Enterobacter gergoviae ATCC 33028 of the family Pluralibacter gergoviae, a Gram-negative and Aspergillus brasiliensis ATCC 16404. FIC test range was 16 times greater than the projected MIC for each sample.
(§2) The differing behaviors of inhibitory antimicrobials in isolation and mixtures have been widely explored using the concept of the Fractional Concentration and Fractional Inhibitory Concentration (FIC). See for instance JRW Lambert and R Lambert, J. Appl. Microbiol 95, 734 (2003); T. Jadavji, CG Prober and R Cheung, Antibacterial Agents and Chemotherapy 26, 91 (1984), and WO 2004/006876. MIC is the minimum inhibitory concentration a component prevents visible growth of a microbe. The FC and FIC parameters can be defined as follows: […]
(§3) Liquid broth assays (MIC and checkerboard) were conducted to identify the minimum concentration(s) of individual and binary combinations of natural preservation materials. […] Each of the two-preservation chemical/broth mixes was then combined in a third 96 well plate at varying concentrations and then inoculated with 1-5×10^6 microorganisms and incubated at 30° C. for 24 hours, after which optical densities at OD600nm were measured.

[2] = system: Aspergillus brasiliensis ATCC 16404; test: Liquid broth assay (MIC and checkerboard) against Aspergillus brasiliensis; assay type: cell-based; conditions: ATCC16404, component by itself, 30° C., 24 hours, MIC = <25% growth vs control (OD600nm)
Excerpt: as §1, §2, §3

**Q.** For `CN(C)Cc1c[nH]c2ccccc12` [Gramine, 1-(1H-Indol-3-yl)-N,N-dimethylmethanamine], which MIC [1] is on record?
**A.** 6250 µg/mL

**Q.** And the MIC [2]?
**A.** 6250 µg/mL
